Data published in publication PMC9883482, “TPX2 enhances the transcription factor activation of PXR and enhances the resistance of hepatocellular carcinoma cells to antitumor drugs” (Cell Death & Disease, 2023).

Tests used:
HepG2 cells = assay: MTT cell survival examination; format: cell-based; details: Homo sapiens, HepG2, 48 h
Experimental: (§1) In the process of dissolving these pure drug powders, stirring, vortexing, and ultrasonic vibration were used to assist dissolution [17, 18]. After a drug was fully dissolved, Dulbecco’s modified Eagle’s medium (DMEM) without fetal bovine serum (FBS) was used to dilute the drug dissolved in DMSO. For doxorubicin, we used DMEM without FBS to dissolve the drug. When performing cell viability experiments (tetrazolium [MTT] assays), these drugs were diluted.
(§2) The antitumor activity of antitumor drugs injuring HCC cells was examined by using MTT assay. After culturing the HCC cells, transfection experiments were performed, and the cells were then seeded in 96-well cell culture plates (about 8000 cells per well). […] After the cells were treated with the drug for about 48 h, a dose of […] tetrazolium (MTT) reagent was added, and cells with the MTT reagent were incubated for 5 to 6 h. After incubation with the MTT was complete, all liquid in the 96-well cell culture plate was discarded, and about 100 μl of DMSO was added to each well to dissolve the cell samples. During the process of lysing the cell samples, the cell culture plate was shaken for 15 minutes to completely lyse the cells. After the lysis step was complete, the cell culture plate was centrifuged at 12,000 rpm at 4 °C, and the supernatant was collected for evaluation.
(§3) All statistical analyses in the presence work were performed using the GraphPad 8.0 (GraphPad Software Corporation, Armonk, NY, USA). […] For the survival analysis data, the survival curves were analyzed by the log-rank (Mantel–Cox) test to detect the P-value of the survival curve, the median survival time, and the 95% confidence interval (CI). For the co-relationship analysis, the data were analyzed by linear regression to determine the overall trend of a group of data points. […] If the slope was positive, the horizontal coordinate was positively related to the vertical coordinate, and if the slope was negative, the horizontal coordinate was negatively related to the vertical coordinate. For the multi-grouped data, the ordinary one-way analysis of variance (ANOVA) and multiple comparison methods were used. An ANOVA was used to examine whether any difference between groups could be detected. The multiple comparisons (t-test) was used to detect differences between pairs of data.

MHCC97-L cells = assay: MTT cell survival examination; format: cell-based; details: Homo sapiens, MHCC97L, 48 h, median (95% CI)
Experimental: as §1, §2, §3

MHCC97-H cells = assay: MTT cell survival examination; format: cell-based; details: Homo sapiens, MHCC97H, 48 h
Experimental: as §1, §2, §3

[1] = system: cyp3a4 and mdr-1 mRNA (PXR downstream genes); details: human
PXR = biological target: T1, PXR (Homo sapiens, UniProt O75469); details: in combination with rifampicin
T1 sequence (O75469 1-434): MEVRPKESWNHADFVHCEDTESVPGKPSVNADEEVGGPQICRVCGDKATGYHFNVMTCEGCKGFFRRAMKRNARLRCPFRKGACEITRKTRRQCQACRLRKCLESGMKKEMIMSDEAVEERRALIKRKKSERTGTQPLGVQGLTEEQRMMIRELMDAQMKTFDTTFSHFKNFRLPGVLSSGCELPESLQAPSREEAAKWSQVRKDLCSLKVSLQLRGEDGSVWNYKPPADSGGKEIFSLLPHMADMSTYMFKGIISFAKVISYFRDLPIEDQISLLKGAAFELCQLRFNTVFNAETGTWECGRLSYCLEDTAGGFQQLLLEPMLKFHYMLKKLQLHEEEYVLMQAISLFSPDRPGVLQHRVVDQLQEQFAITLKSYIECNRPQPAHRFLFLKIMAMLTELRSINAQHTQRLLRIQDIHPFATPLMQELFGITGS

[2] = HepG2, Control, median (95% CI)
[3] = HepG2, TPX2 overexpression, median (95% CI)

Row | Structure (SMILES) | IC50 (HepG2 cells; [2]) | IC50 (HepG2 cells; [3]) | IC50 (HepG2 cells; HepG2, siTPX2, median (95% CI)) | IC50 (MHCC97-L cells; Control) | IC50 (MHCC97-L cells; TPX2 overexpression) | IC50 (MHCC97-H cells; Control, median (95% CI)) | IC50 (MHCC97-H cells; siTPX2, median (95% CI)) | effect on rifampicin- and TPX2-induced transcription of PXR downstream genes (mRNA levels) [1] | effect on TPX2/rifampicin-driven PXR recruitment to cyp3a4 promoter or enhancer (PXR)
1 | COc1cc2nccc(Oc3ccc(NC(=O)C4(C(=O)Nc5ccc(F)cc5)CC4)cc3)c2cc1OC [cabozantinib] | 0.88 µM | 4.78 µM | 0.39 µM | 1.47 µM | 5.03 µM | 0.76 µM | 0.26 µM |  | 
2 | COc1cccc2c1C(=O)c1c(O)c3c(c(O)c1C2=O)C[C@@](O)(C(=O)CO)C[C@@H]3O[C@H]1C[C@H](N)[C@H](O)[C@H](C)O1 [doxorubicin] | 0.33 µM | 1.59 µM | 0.05 µM | 0.25 µM | 0.82 µM | 0.2 µM | 0.06 µM |  | 
3 | COc1cc([C@@H]2c3cc4c(cc3[C@@H](O[C@@H]3O[C@@H]5CO[C@@H](C)O[C@H]5[C@H](O)[C@H]3O)[C@H]3COC(=O)[C@H]23)OCO4)cc(OC)c1O [etoposide] | 0.46 µM | 1.93 µM | 0.18 µM | 0.38 µM | 1.32 µM | 0.25 µM | 0.1 µM |  | 
4 | CCc1c2c(nc3ccc(OC(=O)N4CCC(N5CCCCC5)CC4)cc13)-c1cc3c(c(=O)n1C2)COC(=O)[C@]3(O)CC [irinotecan] | 0.3 µM | 0.82 µM | 0.1 µM | 0.43 µM | 0.97 µM | 0.52 µM | 0.16 µM |  | 
5 | CC(=O)N1CCN(c2ccc(OCC3COC(Cn4ccnc4)(c4ccc(Cl)cc4Cl)O3)cc2)CC1 (stereo not drawn) [ketoconazole] |  |  |  |  |  |  |  | almost blocked the effects of rifampicin and TPX2 | 
6 | COc1cc2nccc(Oc3ccc(NC(=O)NC4CC4)c(Cl)c3)c2cc1C(N)=O [lenvatinib] | 1.3 µM | 5.89 µM | 0.33 µM | 1.94 µM | 5.73 µM | 1.07 µM | 0.5 µM |  | 
7 | CC(=O)O[C@H]1C(=O)[C@@]2(C)[C@H]([C@H](OC(=O)c3ccccc3)[C@]3(O)C[C@H](OC(=O)[C@H](O)[C@@H](NC(=O)c4ccccc4)c4ccccc4)C(C)=C1C3(C)C)[C@]1(OC(C)=O)CO[C@@H]1C[C@@H]2O [paclitaxel] | 0.0148 µM | 0.24 µM | 0.00831 µM | 0.022 µM | 0.15 µM | 0.0127 µM | 0.0042 µM |  | 
8 | CNC(=O)c1cc(Oc2ccc(NC(=O)Nc3ccc(Cl)c(C(F)(F)F)c3)c(F)c2)ccn1 [regorafenib] | 1.01 µM | 3.65 µM | 0.62 µM | 1.5 µM | 4.93 µM | 0.99 µM | 0.75 µM |  | 
9 | CC[C@]1(O)C[C@H]2CN(CCc3c([nH]c4ccccc34)[C@@](C(=O)OC)(c3cc4c(cc3OC)N(C=O)[C@H]3[C@@](O)(C(=O)OC)[C@H](OC(C)=O)[C@]5(CC)C=CCN6CC[C@]43[C@@H]65)C2)C1 [vincristine] |  |  |  |  |  |  |  |  | almost blocked
